The text below walks through data of patent US12185726B2, “Method for efficiently collecting and purifying Orobanche cumana (O. cumana) germination stimulants using aeroponic system and solid-phase extraction (SPE)” (ZHEJIANG UNIVERSITY, priority 2019, dated 2025).

One experiment has as its system O. cumana seeds. The settings on record: at nanomolar and micromolar concentrations; sunflower root exudates; cited from earlier work.
The next experiment deals with O. cumana. Kind of experiment: Biological activities of the four O. cumana germination stimulants detected in stimulants collected under the aeroponic system (UHPLC-TQ-MS detection). Set-up: species or system Orobanche cumana. The settings on record: collected sunflower root exudate stimulants. From the text: 7) The ultra-high performance liquid chromatograph-triple quadrupole mass spectrometry (UHPLC-TQ-MS) was adopted to separate and detect the components of obtained O. cumana germination stimulants. The O. cumana germination stimulants in sunflower root exudates were identified using ultra-high performance liquid chromatography-mass spectrometry (UHPLC-MS/MS), and analyzed using Micromass Quattro Premier XE tandem mass spectrometer (Waters, USA). The mass spectrometer was equipped with an electrospray ionization source (ESI) and combined with a UHPLC system. Chromatographic conditions: UHPLC C18 column (100 mm×2.1 mm, 1.7 μm), and mobile phase: water-methanol. Gradient elution process: 30% methanol for 1 min; 5 min of transition to 80% methanol, and holding at 80% methanol for 1 min; and 0.2 min of transition back to 30% methanol. The column was equilibrated in this solvent composition for 1.8 min before proceeding to the next run. Each run: 9 min; column temperature: 50° C.; flow rate: 0.4 mL/min; and injection volume: 30 μl. MS conditions: ESI, in positive ion scanning mode; gas flow rates of atomizer and desolventizing: 50|h^−1 and 800|h^−1, respectively; capillary voltage: 2.7 kV; extraction cone voltage: 20 V, source temperature: 120° C.; and desolventizing gas temperature: 450° C. 3.0×10^−3 mbar argon was used for collision to induce dissociation and fragmentation. The collision energy for each compound was optimized. Multiple response monitoring (MRM) scanning mode was adopted to search for O. cumana germination stimulants. Mass-to-charge ratio scan range data can be found in (Raupp & Spring 2013; Ueno et al. 2014). In this experiment, based on previous literature data, four types of O. cumana germination stimulants were selected for detection. Three are biologically-active sesquiterpenes isolated from O. cumana germination stimulants, namely, dehydrocostus lactone, costunolide, and 8-epixanthatin, and the remaining one is a non-sesquiterpene, namely, heliolactone.

As for `C=C1C(=O)O[C@@H]2/C=C(\C)CC/C=C(\C)CC[C@@H]12` [costunolide], in the experiment with O. cumana seeds, the “stimulation of the germination of O. cumana seeds” value (shortened to “stimulation”) is “can stimulate the germination”. Moreover, the “biological activity as O. cumana germination stimulant” value (“biological activity” for short) with O. cumana is listed as “high activities”.

`C=C1C(=O)O[C@@H]2C[C@H](C)C(CCC(C)=O)=CC[C@H]12` [tomentosin]: in the experiment with O. cumana seeds, the “stimulation” value is recorded as “can stimulate the germination”.

With `C=C1C(=O)O[C@@H]2C[C@H](C)C(/C=C/C(C)=O)=CC[C@H]12` [8-epixanthatin], the “stimulation” value in the experiment on O. cumana seeds was “can stimulate the germination”. In the experiment with O. cumana, the “biological activity” value is “high activities”. `C=C1CC[C@H]2C(=C)CC[C@H]3C(=C)C(=O)O[C@@H]3[C@@H]12` [dehydrocostus lactone]: the “biological activity” value in the experiment on O. cumana is recorded as “high activities”. As for heliolactone, the “biological activity” value in the experiment on O. cumana was “very low activity”.
